Source: patent US8242145B2, “Cyclic diaryl ether compounds as antagonists of prostaglandin D2 receptors” (Panmira Pharmaceuticals, LLC, priority 2008, dated 2012)

Assays:
human DP2 receptor = target: T1, human DP2 receptor (Homo sapiens, UniProt Q9Y5Y4); experiment: DP2/CRTH2 radioligand binding assay using [3H]PGD2; conditions: hDP2 (CRTH2) binding assay
T1 construct: expressed in transfected cells
T1 sequence (Q9Y5Y4 1-395): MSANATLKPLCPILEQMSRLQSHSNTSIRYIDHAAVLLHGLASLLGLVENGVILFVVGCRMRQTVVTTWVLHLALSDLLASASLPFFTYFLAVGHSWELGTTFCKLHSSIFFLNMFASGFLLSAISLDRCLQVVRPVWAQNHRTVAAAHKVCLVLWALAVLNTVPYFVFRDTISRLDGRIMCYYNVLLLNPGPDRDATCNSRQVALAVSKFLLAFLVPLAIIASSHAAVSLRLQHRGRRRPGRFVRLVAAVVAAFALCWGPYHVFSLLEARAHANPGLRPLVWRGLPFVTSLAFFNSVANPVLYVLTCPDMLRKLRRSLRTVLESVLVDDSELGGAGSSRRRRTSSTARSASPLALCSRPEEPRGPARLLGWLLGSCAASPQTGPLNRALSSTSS
Summary of the method: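 HEK293 membranes with stable recombinant human DP2, incubated with 1 nM [3H]PGD2 and compound 60 min at room temperature in pH 7.4 HEPES/MnCl2/EDTA buffer, with or without 0.2% human serum albumin.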

[1] = target: T2, recombinant human CRTH2 receptor (Homo sapiens, UniProt Q9Y5Y4); experiment: GTPγS binding assay; assay type: biochemical; conditions: +HSA; read-out: hDP2 GTPγS μM (+HSA)
T2 construct: expressed in transfected cells
T2 sequence (Q9Y5Y4 1-395): T1 sequence (Q9Y5Y4 1-395)
Summary of the method: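 Membranes from CHO cells stably expressing recombinant receptor (~12.5 μg/well), incubated 60 min at 30° C with 0.05 nM [^35S]-GTPγS, 80 nM PGD2, 5 μM GDP in pH 7.4 Hepes buffer with 0.2% human serum albumin. Filter-bound radioactivity counted; specific binding = total minus binding without PGD2; IC50 from titration curves.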

human DP1 receptor = target: T3, human DP1 receptor (Homo sapiens, UniProt Q13258); experiment: DP1 radioligand binding assay using [3H]BWA868C; conditions: hDP1 binding
T3 construct: tissue Biological Specialty Corporation; host or cells: human platelets, membranes
T3 sequence (Q13258 1-359): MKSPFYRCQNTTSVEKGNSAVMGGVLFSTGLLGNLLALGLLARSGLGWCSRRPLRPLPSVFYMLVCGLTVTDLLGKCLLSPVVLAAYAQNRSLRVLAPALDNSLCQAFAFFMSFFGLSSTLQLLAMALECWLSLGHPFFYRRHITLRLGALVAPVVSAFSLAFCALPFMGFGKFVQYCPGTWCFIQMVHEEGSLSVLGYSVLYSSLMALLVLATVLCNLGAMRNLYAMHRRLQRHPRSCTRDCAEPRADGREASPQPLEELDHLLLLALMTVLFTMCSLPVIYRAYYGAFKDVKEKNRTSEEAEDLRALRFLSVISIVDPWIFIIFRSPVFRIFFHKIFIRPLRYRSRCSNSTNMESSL
Summary of the method: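 Human platelet membranes (20 μg protein/well) incubated 60 min at room temperature with 2 nM [3H]BWA868C in 50 mM Hepes, 10 mM MnCl2, 1 mM EDTA, ±0.2% human serum albumin, pH 7.4. Bound label measured after filtration; nonspecific binding defined with 10 μM BW A868C. IC50 from titration curves.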

Compound | IC50 (human DP2 receptor) [nM] | IC50 [1] [µM] | IC50 (human DP1 receptor) [nM]
COc1ccc(CC(=O)O)cc1Oc1cc(Br)ccc1CN1C(=O)O[C@H](c2ccccc2)[C@@H]1C [Compound 1-81, {3-[5-Bromo-2-((4S,5R)-4-methyl-2-oxo-5-phenyl-oxazolidin-3-ylmethyl)-phenoxy]-4-methoxy-phenyl}-acetic acid] | < 300 | < 0.3 | > 1000
COc1ccc(CC(=O)O)cc1Oc1cc(Br)ccc1CN1C(=O)O[C@@H](c2ccccc2)[C@H]1C [Compound 1-82, {3-[5-Bromo-2-((4R,5S)-4-Methyl-2-oxo-5-phenyl-oxazolidin-3-ylmethyl)-phenoxy]-4-methoxy-phenyl}-acetic acid] | < 300 | < 0.3 | > 1000
CCOc1ccc(CC(=O)O)cc1Oc1ccc(C(F)(F)F)cc1CN1C(=O)O[C@@H](c2ccccc2)[C@H]1C [Compound 1-83, {4-Ethoxy-3-[2-((4R,5S)-4-methyl-2-oxo-5-phenyl-oxazolidin-3-ylmethyl)-4-trifluoromethyl-phenoxy]-phenyl}-acetic acid] | < 300 | < 0.3 | > 1000
Cn1cc(-c2ccc(Oc3cccc(CC(=O)O)c3)c(CN3CCOC3=O)c2)cn1 [Compound 1-84, {3-[4-(1-Methyl-1H-pyrazol-4-yl)-2-(2-oxo-oxazolidin-3-ylmethyl)-phenoxy]-phenyl}-acetic acid] | 300 to 1000 | 0.3 to 1 | > 1000
CS(=O)(=O)c1ccc(-c2ccc(Oc3cccc(CC(=O)O)c3)c(CN3CCOC3=O)c2)cc1 [Compound 1-85, {3-[4′-Methanesulfonyl-3-(2-oxo-oxazolidin-3-ylmethyl)-biphenyl-4-yloxy]-phenyl}-acetic acid] | < 300 | 0.3 to 1 | > 1000
COc1ccc(CC(=O)O)cc1Oc1ccc(Cl)cc1CN1CCOC1=O [Compound 1-86, {3-[4-Chloro-2-(2-oxo-oxazolidin-3-ylmethyl)-phenoxy]-4-methoxy-phenyl}-acetic acid] | < 300 | < 0.3 | > 1000
C[C@@H]1[C@H](c2ccccc2)OC(=O)N1Cc1cc(Br)ccc1Oc1cc(CC(=O)O)ccc1O [Compound 1-87, {3-[4-Bromo-2-((4R,5S)-4-methyl-2-oxo-5-phenyl-oxazolidin-3-ylmethyl)-phenoxy]-4-hydroxy-phenyl}-acetic acid] | < 300 | < 0.3 | > 1000
CCOc1ccc(CC(=O)O)cc1Oc1ccc(Br)cc1CN1C(=O)O[C@@H](c2ccccc2)[C@H]1C [Compound 1-88, {3-[4-Bromo-2-((4R,5S)-4-methyl-2-oxo-5-phenyl-oxazolidin-3-ylmethyl)-phenoxy]-4-ethoxy-phenyl}-acetic acid] | < 300 | < 0.3 | > 1000
O=C(O)Cc1cc(Cl)cc(Oc2ccc(Br)cc2CN2CCOC2=O)c1 [Compound 1-89, {3-[4-Bromo-2-(2-oxo-oxazolidin-3-ylmethyl)-phenoxy]-5-chloro-phenyl}-acetic acid] | < 300 | < 0.3 | > 1000
COc1ccc(CC(=O)O)cc1Oc1ccc(NC(=O)c2ccc(Cl)cc2)cc1CN1CCOC1=O [Compound 1-91, {3-[4-(4-Chloro-benzoylamino)-2-(2-oxo-oxazolidin-3-ylmethyl)-phenoxy]-4-methoxy-phenyl}-acetic acid] | < 300 | > 1 | > 1000
O=C(O)CCn1c2c(c3ccccc31)C[C@H](NS(=O)(=O)c1ccc(F)cc1)CC2 [Ramatroban, reference compound] | 300 to 1000 | 0.3 to 1 | > 1000

The remaining lines, values ahead:

IC50 (human DP2 receptor) [nM] | IC50 [1] [µM] | IC50 (human DP1 receptor) [nM] | Compound
< 300 | < 0.3 | > 1000 | O=C(O)Cc1cccc(Oc2ccc(Br)cc2CN2C(=O)O[C@H]3Cc4ccccc4[C@H]32)c1 [Compound 2-1, {3-[4-Bromo-2-((3aR,8aS)-2-oxo-8,8a-dihydro-3aH-indeno[1,2-d]oxazol-3-ylmethyl)-phenoxy]-phenyl}-acetic acid]
< 300 | < 0.3 | > 1000 | O=C(O)Cc1cccc(Oc2ccc(Br)cc2CN2C(=O)O[C@@H]3Cc4ccccc4[C@@H]32)c1 [Compound 2-2, {3-[4-Bromo-2-((3aS,8aR)-2-oxo-8,8a-dihydro-3aH-indeno[1,2-d]oxazol-3-ylmethyl)-phenoxy]-phenyl}-acetic acid]
< 300 | 0.3 to 1 | > 1000 | O=C(O)Cc1cccc(Oc2ccc(C(F)(F)F)cc2CN2C(=O)O[C@@H]3Cc4ccccc4[C@@H]32)c1 [Compound 2-3, {3-[2-((3aS,8aR)-2-Oxo-8,8a-dihydro-3aH-indeno[1,2-d]oxazol-3-ylmethyl)-4-trifluoromethyl-phenoxy]-phenyl}-acetic acid]
< 300 | < 0.3 | > 1000 | COc1ccc(CC(=O)O)cc1Oc1ccc(Br)cc1CN1C(=O)O[C@H]2Cc3ccccc3[C@H]21 [Compound 2-4, {3-[4-Bromo-2-((3aR,8aS)-2-oxo-8,8a-dihydro-3aH-indeno[1,2-d]oxazol-3-ylmethyl)-phenoxy]-4-methoxy-phenyl}-acetic acid]
< 300 | < 0.3 | > 1000 | COc1ccc(CC(=O)O)cc1Oc1ccc(Br)cc1CN1C(=O)O[C@@H]2Cc3ccccc3[C@@H]21 [Compound 2-5, {3-[4-Bromo-2-((3aS,8aR)-2-oxo-8,8a-dihydro-3aH-indeno[1,2-d]oxazol-3-ylmethyl)-phenoxy]-4-methoxy-phenyl}-acetic acid]
< 300 | < 0.3 | > 1000 | O=C(O)Cc1cccc(Oc2ccc(C(F)(F)F)cc2CN2C(=O)OC3c4ccccc4CC32)c1 (stereo not drawn) [Compound 2-7, {3-[2-(2-Oxo-4,8b-dihydro-3aH-indeno[2,1-d]oxazol-3-ylmethyl)-4-trifluoromethyl-phenoxy]-phenyl}-acetic acid]
< 300 | > 1 | 300 to 1000 | O=C(O)Cc1cccc(Oc2ccc(Br)cc2CN2CC(c3ccc(Cl)cc3)CC2=O)c1 (stereo not drawn) [Compound 3-2, (3-{4-Bromo-2-[4-(4-chloro-phenyl)-2-oxo-pyrrolidin-1-ylmethyl]-phenoxy}-phenyl)-acetic acid]
